Laboratory results taken from US6589942B1, “Chitosan metal complexes and method for controlling microbial growth on plants using same” (priority 1998, dated 2003).

Experiments:
Format in all cases: in vivo
[1] = test system: potato leaves; assay: toxicity to potato leaves (Example 2)
[2] = test system: cucumber plants; assay: toxicity to cucumber plants (Example 3)
[3] = test system: cucumber plants; assay: toxicity to cucumber plants (Example 5)
Source text: Controlling the Gray mold disease caused by Botrytis cinerea in cucumber plants utilizing 0.1% chitosan and metal complexes.

Measured: toxicity to the plant

O=[N+]([O-])[O-].O=[N+]([O-])[O-].[Cu+2] [CuNO3]
toxic: [1]; 25 ppm metals | [1]; 50 ppm metals | [1]; 75 ppm metals | [2]; 25 ppm metals | [2]; 50 ppm metals | [2]; 75 ppm metals | [3]; 35 ppm metals | [3]; 50 ppm metals
